Results taken from paper PMC8724251, “A Supramolecular Nanoparticle of Pemetrexed Improves the Anti-Tumor Effect by Inhibiting Mitochondrial Energy Metabolism” (Frontiers in Bioengineering and Biotechnology, 2021).
Read-outs that look alike come from different tables or passages of the source. Square brackets hold non-standard residues; d marks the D form. Ends that are not written are not given here. Peptide text beside a SMILES is read from it. * marks the point of attachment. ξ: configuration not given here. X1 = Nc1nc2[nH]cc(CCc3ccc(C(=O)*)cc3)c2c(=O)[nH]1; ξE = NC(CCC(=O)O)C(=O)O

Key:
LLC cells [1] = assay: MTT viability assay, LLC cells
Protocol: (§1) Lewis lung cancer (LLC) and A549 cells (100 µl) were plated at a concentration of 5 × 10^3 cells/well in a flat-bottomed 96-well plate on Day 0. […] Then, the culture medium was removed, and MTT (0.5 mg/ml) was added to each well and incubated for 4 h. The supernatant was discarded, and dimethyl sulfoxide (100 µl) was used to completely dissolve the crystals.

A549 cells [2] = assay: MTT viability assay, A549 cells
Protocol: as §1

LLC cells [3] = assay: Live/dead assay (calcein-AM / EthD-1), LLC cells; assay type: cell-based; conditions: 6 μM, 72 h, calcein-AM/EthD-1, microscopy
Protocol: (§2) LLC cells and A549 cells (5,000 cells/well) were plated in 96-well plates and cultured for 24 h. Then, the cells were cocultured with 6 and 12 µM PEM and PEM-FFRGD for 72 h, respectively. The cells were washed with PBS and stained with calcein-AM and ethidium homodimer-1 (EthD-1) for 15 min. Then, the cells were viewed under microscopy (TI-S, Nikon, United States).

A549 cells [4] = assay: Live/dead assay (calcein-AM / EthD-1), A549 cells; assay type: cell-based; conditions: 12 μM, 72 h, calcein-AM/EthD-1, microscopy
Protocol: as §2

Lewis lung tumors = assay: In vivo antitumor efficacy in LLC tumor-bearing mice; parameters: species or system C57BL/6J mice; conditions: LLC subcutaneous tumors, i.v., 20 mg/kg, two injections, tumor volumes within 2 weeks, n = 5
Protocol: (§3) C57BL/6J mice were subcutaneously inoculated with Lewis lung tumors and then randomly divided into four groups (5 mice per group) when the tumor sizes were approximately 100 mm^3. Mice in Groups 1 and 2 received PBS and FFRGD gels through i.v. injections, while mice in Groups 3 and 4 were administered 20 mg/kg PEM and PEM-FFRGD nanoparticles by i.v. injection. Repeated injections were administered on Days 1 and 5. Tumor size and body weight were monitored every 2 days, and the tumor volume was calculated according to the following formula: tumor volume (V, mm^3) = (tumor width)^2 × (tumor length)/2.

[5] = Body weight and serum TNFα, IL-6, ALT, AST in LLC tumor-bearing mice; assay type: in vivo, C57BL/6J mice; conditions: for mouse weight: i.v., monitored every 2 days
Protocol: as §3

[6] = LLC tumor-bearing mice, i.v. 20 mg/kg, n = 5

Compound	cytotoxicity toward LLC cells, 24 h (LLC cells [1])	cytotoxicity toward A549 cells, 24 h (A549 cells [2])	cell killing in live/dead staining, LLC cells (LLC cells [3])	cell killing in live/dead staining, A549 cells (A549 cells [4])	tumor growth (Lewis lung tumors)	mouse weight ([5]; LLC tumor-bearing mice, n = 5)	cytotoxic activity toward LLC cells compared with PEM alone (LLC cells [1])	cytotoxicity toward LLC cells, 48 h (LLC cells [1])	cytotoxicity toward A549 cells, 24 h (A549 cells [2]; MTT, different concentrations, 24 h incubation)	cytotoxicity toward A549 cells, 48 h (A549 cells [2]; MTT, different concentrations, 48 h incubation, viability lower than with PEM)	cytotoxic activity toward A549 cells compared with PEM alone (A549 cells [2]; MTT, series of concentrations, 72 h)	serum level of ALT versus PBS and PEM alone [5, 6]	serum level of AST versus PBS and PEM alone [5, 6]	serum level of IL-6 versus PBS and PEM alone [5, 6]	serum level of TNFα versus PBS and PEM alone [5, 6]	systemic toxicity in mice ([5]; from body weight and serum TNFα, IL-6, ALT, AST)	cell toxicity at 100 μM (LLC cells) (LLC cells [1]; MTT, 100 μM, 72 h)	cell toxicity at 100 μM (A549 cells) (A549 cells [2]; MTT, 100 μM, 72 h)
Nc1nc2[nH]cc(CCc3ccc(C(=O)N[C@@H](CCC(=O)O)C(=O)O)cc3)c2c(=O)[nH]1 [PEM, Pemetrexed]	no cytotoxicity	no cytotoxicity	could kill most cells	could kill most cells	significantly inhibited	no influence on mouse weight	–	–	–	–	–	–	–	–	–	–	–	–
N=C(N)NCCC[C@H](NC(=O)[C@H](Cc1ccccc1)NC(=O)[C@H](Cc1ccccc1)NC(=O)C(CCC(=O)O)NC(=O)c1ccc(CCc2c[nH]c3nc(N)[nH]c(=O)c23)cc1)C(=O)NCC(=O)N[C@@H](CC(=O)O)C(=O)O (some centres unmarked) [PEM-FFRGD] (X1-[ξE]FFRGD-OH)	no cytotoxicity	–	–	–	–	–	stronger cytotoxic activity	showed cytotoxic activity	no cytotoxicity	showed cytotoxic activity	stronger cytotoxic activity	not different	not different	not different	not different	no systemic toxicity	–	–
FFRGD [FFRGD, reference compound]	–	–	–	–	–	no influence on mouse weight	–	–	–	–	–	–	–	–	–	–	did not display any distinct cell toxicity	did not display any distinct cell toxicity
